According to patent publication US11344554B2, “Animal and human anti-malarial agents” (Celgene Corporation, priority 2016, dated 2022):
pIC50: −log10 of the molar value. Read-outs that look alike come from different tables or passages of the source.

System: Plasmodium falciparum
Experiment: Plasmodium falciparum in vitro [3H]-hypoxanthine parasite growth inhibition assay
Type: cell-based
Details: Erythrocyte, read-out: Act Class (IC50 activity level)
[1] = P. falciparum asexual blood stage parasites in human erythrocytes, [3H]-hypoxanthine uptake

Structure (SMILES) | pIC50 [1] | pIC50
CC(C)(C)Nc1ncc2nc(Nc3ccnc(C(F)(F)F)c3)n(C3CCNCC3)c2n1 [Cpd 31, N2-tert-butyl-9-(piperidin-4-yl)-N8-(2-(trifluoromethyl)pyridin-4-yl)-9H-purine-2,8-diamine] | 6.30 to 6.70 | 
CC(C)Nc1ncc2nc(Nc3cc(Cl)cc(Cl)c3)n(C3CCNCC3)c2n1 [Cpd 43, N8-(3,5-dichlorophenyl)-N2-isopropyl-9-(piperidin-4-yl)-9H-purine-2,8-diamine] | > 7.00 | 
CC(C)(C)Nc1ncc2nc(Nc3cccc(C(F)(F)F)c3)n(C3CCNCC3)c2n1 [Cpd 3, N2-tert-butyl-9-(piperidin-4-yl)-N8-(3-(trifluoromethyl)phenyl)-9H-purine-2,8-diamine] | > 7.00 | 
CC(C)(C)Nc1ncc2nc(Nc3cccc(OC(F)(F)F)c3)n(C3CCNCC3)c2n1 [Cpd 29, N2-tert-butyl-9-(piperidin-4-yl)-N8-(3-(trifluoromethoxy)phenyl)-9H-purine-2,8-diamine] | > 7.00 | 
CC(C)(C)Nc1ncc2nc(Nc3cncc(Cl)c3)n(C3CCNCC3)c2n1 [Cpd 30, N2-tert-butyl-N8-(5-chloropyridin-3-yl)-9-(piperidin-4-yl)-9H-purine-2,8-diamine] | 5.92 to 6.30 | 
CC(C)(C)Nc1ncc2nc(Nc3cccc(C(F)(F)F)c3)n(C3CCN(CCN)CC3)c2n1 [Cpd 4, 9-(1-(2-aminoethyl)piperidin-4-yl)-N2-tert-butyl-N8-(3-(trifluoromethyl)phenyl)-9H-purine-2,8-diamine] | > 7.00 | 
CC(C)(C)Nc1ncc2nc(Nc3cccc(Cl)c3)n(CCn3ccnc3)c2n1 [Cpd 1, 9-(2-(1H-imidazol-1-yl)ethyl)-N2-tert-butyl-N8-(3-chlorophenyl)-9H-purine-2,8-diamine] | 6.30 to 6.70 | 
CC1(Nc2ncc3nc(Nc4cccc(C(F)(F)F)c4)n(C4CCNCC4)c3n2)CCOCC1 [Cpd 25, N2-(4-methyltetrahydro-2H-pyran-4-yl)-9-(piperidin-4-yl)-N8-(3-(trifluoromethyl)phenyl)-9H-purine-2,8-diamine] | 5.92 to 6.30 | 
CC(C)(C)Nc1ncc2nc(Nc3ccc(C(F)(F)F)cc3)n(C3CCN(CCN)CC3)c2n1 [Cpd 5, 9-(1-(2-aminoethyl)piperidin-4-yl)-N2-tert-butyl-N8-(4-(trifluoromethyl)phenyl)-9H-purine-2,8-diamine] | 6.70 to 7.00 | 
CC(C)Nc1ncc2nc(Nc3cc(Cl)cc(C(F)(F)F)c3)n(C3CCNCC3)c2n1 [Cpd 44, N8-(3-chloro-5-(trifluoromethyl)phenyl)-N2-isopropyl-9-(piperidin-4-yl)-9H-purine-2,8-diamine] | > 7.00 | 
CC(C)(C)Nc1ncc2nc(Nc3ccc(C(F)(F)F)cc3)n(C3CCNCC3)c2n1 [Cpd 2, N2-tert-butyl-9-(piperidin-4-yl)-N8-(4-(trifluoromethyl)phenyl)-9H-purine-2,8-diamine] | 6.30 to 6.70 | 
CC(C)(C)Nc1ncc2nc(Nc3cc(Cl)cc(C(F)(F)F)c3)n(C3CCN(CCN)C3)c2n1 (centres unmarked) [Cpd 60, 9-(1-(2-aminoethyl)pyrrolidin-3-yl)-N2-tert-butyl-N8-(3-chloro-5-(trifluoromethyl)phenyl)-9H-purine-2,8-diamine] | 6.30 to 6.70 | 
CC(C)(C)Nc1ncc2nc(Nc3ccc(OC(F)(F)F)cc3)n(C3CCNCC3)c2n1 [Cpd 21, N2-tert-butyl-9-(piperidin-4-yl)-N8-(4-(trifluoromethoxy)phenyl)-9H-purine-2,8-diamine] | 6.70 to 7.00 | 
CC(C)(C)Nc1ncc2nc(Nc3cccc(C(F)(F)F)c3)n(CCC3CCNC3)c2n1 (centres unmarked) [Cpd 18, N2-tert-butyl-9-(2-(pyrrolidin-3-yl)ethyl)-N8-(3-(trifluoromethyl)phenyl)-9H-purine-2,8-diamine] | 6.70 to 7.00 | 
CC(C)(C)Nc1ncc2nc(Nc3cc(Cl)cc(Cl)c3)n(C3CCN(CCN)CC3)c2n1 [Cpd 35, 9-(1-(2-aminoethyl)piperidin-4-yl)-N2-tert-butyl-N8-(3,5-dichlorophenyl)-9H-purine-2,8-diamine] | 6.30 to 6.70 | 
CC(C)(C)Nc1ncc2nc(Nc3ccc(Cl)cc3)n(C3CCNCC3)c2n1 [Cpd 7, N2-tert-butyl-N8-(4-chlorophenyl)-9-(piperidin-4-yl)-9H-purine-2,8-diamine] | 6.70 to 7.00 | 
CC(C)(C)Nc1ncc2nc(Nc3cc(Cl)cc(C(F)(F)F)c3)n(CC3CCNC3)c2n1 (centres unmarked) [Cpd 98, N2-tert-butyl-N8-(3-chloro-5-(trifluoromethyl)phenyl)-9-(pyrrolidin-3-ylmethyl)-9H-purine-2,8-diamine] |  | 6.30 to 6.70
CC1(Nc2ncc3nc(Nc4cc(Cl)cc(C(F)(F)F)c4)n(C4CCNCC4)c3n2)CC1 [Cpd 42, N8-(3-chloro-5-(trifluoromethyl)phenyl)-N2-(1-methylcyclopropyl)-9-(piperidin-4-yl)-9H-purine-2,8-diamine] | > 7.00 | 
CC(C)(C)Nc1ncc2nc(Nc3ccc(C#N)cc3)n(C3CCNCC3)c2n1 [Cpd 14, 4-(2-(tert-butylamino)-9-(piperidin-4-yl)-9H-purin-8-ylamino)benzonitrile] | 5.92 to 6.30 | 
CC(C)(C)Nc1ncc2nc(Nc3cc(F)cc(Cl)c3)n(C3CCNCC3)c2n1 [Cpd 26, N2-tert-butyl-N8-(3-chloro-5-fluorophenyl)-9-(piperidin-4-yl)-9H-purine-2,8-diamine] | > 7.00 | 

Now from value to compound, other results behind:

pIC50 [1] | Structure (SMILES) | pIC50
6.70 to 7.00 | CC1(Nc2ncc3nc(Nc4ccc(Cl)c(C(F)(F)F)c4)n(C4CCNCC4)c3n2)CCCC1 [Cpd 90, N8-(4-chloro-3-(trifluoromethyl)phenyl)-N2-(1-methylcyclopentyl)-9-(piperidin-4-yl)-9H-purine-2,8-diamine] | 
6.70 to 7.00 | FC(F)(F)c1cc(Nc2nc3cnc(NC4CC4)nc3n2C2CCNCC2)cc(C(F)(F)F)c1 [Cpd 96, N8-(3,5-bis(trifluoromethyl)phenyl)-N2-cyclopropyl-9-(piperidin-4-yl)-9H-purine-2,8-diamine] | 
> 7.00 | CC(C)Nc1ncc2nc(Nc3cc(F)cc(Cl)c3)n(C3CCNCC3)c2n1 [Cpd 63, N8-(3-chloro-5-fluorophenyl)-N2-isopropyl-9-(piperidin-4-yl)-9H-purine-2,8-diamine] | 
6.30 to 6.70 | CC1(Nc2ncc3nc(Nc4ccc(C(F)(F)F)c(Cl)c4)n(C4CCNCC4)c3n2)CC1 [Cpd 93, N8-(3-chloro-4-(trifluoromethyl)phenyl)-N2-(1-methylcyclopropyl)-9-(piperidin-4-yl)-9H-purine-2,8-diamine] | 
6.30 to 6.70 | FC(F)(F)c1ccc(Nc2nc3cnc(NC4CCCC4)nc3n2C2CCNCC2)cc1Cl [Cpd 92, N8-(3-chloro-4-(trifluoromethyl)phenyl)-N2-cyclopentyl-9-(piperidin-4-yl)-9H-purine-2,8-diamine] | 
5.92 to 6.30 | FC(F)(F)c1cccc(Nc2nc3cnc(NC4CCOCC4)nc3n2C2CCNCC2)c1 [Cpd 46, 9-(piperidin-4-yl)-N2-(tetrahydro-2H-pyran-4-yl)-N8-(3-(trifluoromethyl)phenyl)-9H-purine-2,8-diamine] | 
6.70 to 7.00 | CC(C)Nc1ncc2nc(Nc3cccc(C(F)(F)F)c3)n(C3CCNCC3)c2n1 [Cpd 66, N2-isopropyl-9-(piperidin-4-yl)-N8-(3-(trifluoromethyl)phenyl)-9H-purine-2,8-diamine] | 
6.70 to 7.00 | CC1(Nc2ncc3nc(Nc4ccc(C(F)(F)F)c(Cl)c4)n(C4CCNCC4)c3n2)CCCC1 [Cpd 94, N8-(3-chloro-4-(trifluoromethyl)phenyl)-N2-(1-methylcyclopentyl)-9-(piperidin-4-yl)-9H-purine-2,8-diamine] | 
6.30 to 6.70 | CC(C)Nc1ncc2nc(Nc3ccc(C(F)(F)F)c(Cl)c3)n(C3CCNCC3)c2n1 [Cpd 91, N8-(3-chloro-4-(trifluoromethyl)phenyl)-N2-isopropyl-9-(piperidin-4-yl)-9H-purine-2,8-diamine] | 
6.70 to 7.00 | CC(C)Nc1ncc2nc(Nc3ccc(Cl)c(C(F)(F)F)c3)n(C3CCNCC3)c2n1 [Cpd 79, N8-(4-chloro-3-(trifluoromethyl)phenyl)-N2-isopropyl-9-(piperidin-4-yl)-9H-purine-2,8-diamine] | 
> 7.00 | CC1(Nc2ncc3nc(Nc4cc(Cl)cc(C(F)(F)F)c4)n(C4CCNCC4)c3n2)CCCC1 [Cpd 68, N8-(3-chloro-5-(trifluoromethyl)phenyl)-N2-(1-methylcyclopentyl)-9-(piperidin-4-yl)-9H-purine-2,8-diamine] | 
> 7.00 | CC(C)(C)Nc1ncc2nc(Nc3cc(C(F)(F)F)cc(C(F)(F)F)c3)n(C3CCNCC3)c2n1 [Cpd 49, N8-(3,5-bis(trifluoromethyl)phenyl)-N2-tert-butyl-9-(piperidin-4-yl)-9H-purine-2,8-diamine] | 
> 7.00 | FC(F)(F)c1cc(Nc2nc3cnc(NC4CCCC4)nc3n2C2CCNCC2)cc(C(F)(F)F)c1 [Cpd 85, N8-(3,5-bis(trifluoromethyl)phenyl)-N2-cyclopentyl-9-(piperidin-4-yl)-9H-purine-2,8-diamine] | 
6.70 to 7.00 | CC(C)(C)Nc1ncc2nc(Nc3ccc(Cl)c(C(F)(F)F)c3)n(C3CCNCC3)c2n1 [Cpd 88, N2-tert-butyl-N8-(4-chloro-3-(trifluoromethyl)phenyl)-9-(piperidin-4-yl)-9H-purine-2,8-diamine] | 
6.70 to 7.00 | FC(F)(F)c1cc(Nc2nc3cnc(NC4CCC4)nc3n2C2CCNCC2)cc(C(F)(F)F)c1 [Cpd 86, N8-(3,5-bis(trifluoromethyl)phenyl)-N2-cyclobutyl-9-(piperidin-4-yl)-9H-purine-2,8-diamine] | 
> 7.00 | CC1(Nc2ncc3nc(Nc4cc(Cl)cc(C(F)(F)F)c4)n(C4CCNCC4)c3n2)CCOCC1 [Cpd 54, N8-(3-chloro-5-(trifluoromethyl)phenyl)-N2-(4-methyltetrahydro-2H-pyran-4-yl)-9-(piperidin-4-yl)-9H-purine-2,8-diamine] | 
6.70 to 7.00 | FC(F)(F)c1ccc(Nc2nc3cnc(NC4CCC4)nc3n2C2CCNCC2)cc1Cl [Cpd 83, N8-(3-chloro-4-(trifluoromethyl)phenyl)-N2-cyclobutyl-9-(piperidin-4-yl)-9H-purine-2,8-diamine] | 
6.30 to 6.70 | FC(F)(F)c1ccc(Nc2nc3cnc(NC4CC4)nc3n2C2CCNCC2)cc1Cl [Cpd 81, N8-(3-chloro-4-(trifluoromethyl)phenyl)-N2-cyclopropyl-9-(piperidin-4-yl)-9H-purine-2,8-diamine] | 
